Reference: ChEMBL document CHEMBL5137114, “Discovery of IHMT-MST1-58 as a Novel, Potent, and Selective MST1 Inhibitor for the Treatment of Type 1/2 Diabetes” (J Med Chem, 2022)
Active and inactive are the calls of the source. The rule behind the calls is not given here.

Columns and labels:
[1] = biological target: T1, Serine/threonine-protein kinase 3 (Homo sapiens, UniProt Q13188); assay: Inhibition of recombinant full length N-terminal GST -tagged human MST2 expressed in baculovirus infected Sf9 insect cells using KKSRGDYMTMQIG as substrate incubated for 1 hr in presence of ATP by ADP-Glo luminescent assay
T1 sequence (Q13188 whole entry): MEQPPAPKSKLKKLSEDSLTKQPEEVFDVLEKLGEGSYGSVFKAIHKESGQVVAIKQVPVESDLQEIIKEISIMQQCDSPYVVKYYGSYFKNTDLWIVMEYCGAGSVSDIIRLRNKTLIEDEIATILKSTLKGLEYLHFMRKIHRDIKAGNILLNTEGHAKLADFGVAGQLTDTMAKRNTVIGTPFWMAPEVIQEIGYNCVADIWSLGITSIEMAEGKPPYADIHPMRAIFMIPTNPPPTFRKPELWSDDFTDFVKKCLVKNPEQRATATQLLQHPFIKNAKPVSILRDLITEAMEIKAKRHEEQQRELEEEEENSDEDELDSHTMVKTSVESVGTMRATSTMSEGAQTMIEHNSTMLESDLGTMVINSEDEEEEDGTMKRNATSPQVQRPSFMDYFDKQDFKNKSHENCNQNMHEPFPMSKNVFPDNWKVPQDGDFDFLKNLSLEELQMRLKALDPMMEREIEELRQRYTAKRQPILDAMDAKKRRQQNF

[2] = biological target: T2, Serine/threonine-protein kinase 3 (Homo sapiens) (UniProt Q13188); assay: Inhibition of recombinant full length N-terminal GST -tagged human MST2 expressed in baculovirus infected Sf9 insect cells using KKSRGDYMTMQIG as substrate incubated for 1 hr in presence of ATP by ADP-Glo luminescent assay relative to control; details: concentration not given here
T2 sequence (whole entry): T1 sequence (Q13188 whole entry)

[3] = Half life in mouse at 1 mg/kg, iv measured up to 12 hrs by LC-MS/MS analysis; format: ADME, organism-based; details: in vivo
[4] = AUC (0 to t) in mouse at 10 mg/kg, po measured up to 24 hrs by LC-MS/MS analysis; format: ADME, organism-based; design: time < 24 hrs, dose 10 mg/kg, route po; details: in vivo
[5] = AUC (0 to t) in Sprague-Dawley rat at 1 mg/kg, iv measured up to 12 hrs by LC-MS/MS analysis; format: ADME, organism-based; design: dose 1 mg/kg, time < 12 hrs, route iv; details: in vivo
[6] = Half life in Sprague-Dawley rat at 1 mg/kg, iv measured up to 12 hrs by LC-MS/MS analysis; format: ADME, organism-based; details: in vivo
[7] = Cmax in Sprague-Dawley rat at 1 mg/kg, iv measured up to 12 hrs by LC-MS/MS analysis; format: ADME, organism-based; design: time < 12 hrs, dose 1 mg/kg, route iv; details: in vivo
[8] = Half life in Sprague-Dawley rat at 10 mg/kg, po measured up to 24 hrs by LC-MS/MS analysis; format: ADME, organism-based; details: in vivo
[9] = Half life in Beagle dog at 10 mg/kg, po measured up to 24 hrs by LC-MS/MS analysis; format: ADME, organism-based, Canis lupus familiaris; details: in vivo
[10] = Cmax in Beagle dog at 10 mg/kg, po measured up to 24 hrs by LC-MS/MS analysis; format: ADME, organism-based, Canis lupus familiaris; design: time < 24 hrs, dose 10 mg/kg, route po; details: in vivo
[11] = AUC (0 to t) in mouse plasma at 50 mg/kg, po measured up to 24 hrs by LC-MS/MS analysis; format: ADME, organism-based; design: dose 50 mg/kg, time < 24 hrs, route po
[12] = Clearance in mouse plasma at 50 mg/kg, po measured up to 24 hrs by LC-MS/MS analysis; format: ADME, organism-based
[13] = AUC (0 to t) in mouse Pancreas at 50 mg/kg, po measured up to 24 hrs by LC-MS/MS analysis; format: ADME, organism-based; design: time < 24 hrs, dose 50 mg/kg, route po
Mus musculus [14] = assay: Antidiabetic activity against 8 hrs fasted multi low dose STZ-induced C57BL/6J mouse model of type 1 diabetes assessed as decrease in fasting blood glucose level at 50 mg/kg, po administered for 77 days (reference value: 22.3 mmol/L); format: functional; details: time 77 day
Mus musculus [15] = assay: Antidiabetic activity against 8 hrs fasted multi low dose STZ-induced C57BL/6J mouse model of type 1 diabetes assessed as decrease in fasting blood glucose level at 50 mg/kg, po administered measured immediately in presence of metformin (reference value: 19.3 mmol/L); format: functional
Mus musculus [16] = assay: Antidiabetic activity in 12 to 14 hrs fasted multi low dose STZ-induced C57BL/6J mouse model of type 1 diabetes assessed as reduction on blood glucose at 50 mg/kg, po qd pretreated with compound followed by glucose challenge and measured upto 180 mins by IPGTT assay; format: functional, organism-based
Mus musculus [17] = assay: Antidiabetic activity in multi low dose STZ-induced C57BL/6J mouse model of type 1 diabetes assessed as reduction in HbA1c level at 50 mg/kg, po qd (reference value: 7.6 %); format: functional; design: scale not given: the % may be the effect or the level left
[18] = Toxicity in multi low dose STZ-induced C57BL/6J mouse model of type 1 diabetes assessed as effect on pancreas morphology at 50 mg/kg, po qd by H and E staining based analysis; format: organism-based; details: in vivo
Mus musculus [19] = assay: Antidiabetic activity against high fat diet-STZ-induced C57BL/6J mouse model of type 2 diabetes assessed as improvement in food intake at 50 mg/kg, po qd administered upto 106 days in presence of metformin; format: functional, organism-based; details: time <= 106.0 day
Mus musculus [20] = assay: Antidiabetic activity in high fat diet-STZ-induced C57BL/6J mouse model of type 2 diabetes assessed as reduction in HbA1c level at 50 mg/kg, po qd (reference value: 8.6 %); format: functional; design: scale not given: the % may be the effect or the level left
[21] = Toxicity in high fat diet-STZ-induced C57BL/6J mouse model of type 2 diabetes assessed as effect on pancreas morphology at 50 mg/kg, po qd by H and E staining based analysis; format: organism-based; details: in vivo
[22] = Toxicity in multi low dose STZ-induced C57BL/6J mouse model of Type 1 diabetes assessed as effect on body weight at 50 mg/kg, po qd; format: organism-based; details: in vivo
[23] = Cytotoxicity against rat RIN-m5F cells at 10 uM incubated for 72 hrs by Cell Titer-Glo assay; format: toxicity, cell-based
[24] = tested on: Serine/threonine-protein kinase 4 (Rattus norvegicus); assay: Inhibition of INF-gamma-stimulated MST1 phosphorylation in rat INS1 cells incubated for 12 hrs by Western blotting analysis; details: dose 0.1-10 µM, DDE = dose-dependent effect
[25] = tested on: Serine/threonine-protein kinase 4 (Rattus norvegicus); assay: Inhibition of IL-1beta-stimulated MST1 phosphorylation in rat RIN-m5F cells incubated for 12 hrs by Western blotting analysis; details: dose 0.1-10 µM, DDE = dose-dependent effect
[26] = tested on: Serine/threonine-protein kinase 4 (Rattus norvegicus); assay: Inhibition of TNF-alpha-stimulated MST1 phosphorylation in rat RIN-m5F cells incubated for 12 hrs by Western blotting analysis; details: dose 0.1-10 µM, DDE = dose-dependent effect
[27] = tested on: Serine/threonine-protein kinase 4 (Rattus norvegicus); assay: Inhibition of TNF-alpha-stimulated MST1 in rat INS1 cells assessed as reduction in MOB1 autophosphorylation incubated for 12 hrs by Western blotting analysis; details: dose 0.1-10 µM, DDE = dose-dependent effect
[28] = tested on: Serine/threonine-protein kinase 4 (Rattus norvegicus); assay: Inhibition of TNF-alpha-stimulated MST1 in rat RIN-m5F cells assessed as reduction in MOB1 autophosphorylation incubated for 12 hrs by Western blotting analysis; details: dose 0.1-10 µM, DDE = dose-dependent effect

In the case of `Cc1ccccc1C1C(=O)N(C)c2cnc(Nc3ccc(S(N)(=O)=O)cc3)nc2N1C` (stereo not drawn), the IC50 [1] is reported as 652 nM, the inhibition [2] is reported as 52% and the half-life [3] is reported as 1.7 h. For the same compound, the AUC(0-t) at 24 h [4] was 5580 ng·h/mL, the AUCt [5] was 2553 ng·h/mL and the half-life [6] was 3.51 h. The Cmax [7] was 944 ng/mL, the half-life [8] was 3.03 h and the half-life [9] was 5.79 h. For the same compound, the Cmax [10] was 1110 ng/mL, the AUC(0-t) at 24 h [11] was 13600 ng·h/mL and the CL/F [12] was 62.2 mL/min/kg. The AUC(0-t) at 24 h [13] was 51400 ng·h/mL, the Activity (Mus musculus [14]) was 14.2 mmol/L and the Activity (Mus musculus [15]) was 19.3 mmol/L. The Activity (Mus musculus [16]) was “Active”, the Activity (Mus musculus [17]) was 6.7% and the Activity [18] was “Non-Toxic”. The Activity (Mus musculus [19]) was “Active”, the Activity (Mus musculus [20]) was 7.9% and the Activity [21] was “Non-Toxic”. For the same compound, the Activity [22] was “Non-Toxic”, the Activity [23] was “Non-Toxic” and the inhibition [24] was “Dde”. For the same compound, the inhibition [25] was “Dde”, the inhibition [26] was “Dde” and the inhibition [27] was “Dde”. For the same compound, the inhibition [28] was “Dde”.
